Laboratory results published in patent US8513162B2, “Halogen-containing organosulfur compound and use thereof” (Sumitomo Chemical Company, Limited, priority 2008, dated 2013).

How the values were obtained:
Type in all cases: in vivo
Culex pipiens pallens = assay: Test Example 6: Culex pipiens pallens larvae in treated water; details: 24 h, read-out: pest death rate
Procedure: A formulation of any one of the present compounds (4), (5), (6), (7), (8), (9), (11), (12), (15), (16), (18), (19), (20), (21), (22), and (26) obtained in Formulation Example 5 was diluted with water to prepare a test solution having 500 ppm of the active ingredient.
To 100 mL of ion-exchanged water, 0.7 ml of the test solution was added (active ingredient concentration: 3.5 ppm). Into the solution, 20 last-instar larvae of Culex pipiens pallens were released. After 1 day, the number of surviving or dead Culex pipiens pallens was counted and the death rate of the pest was calculated.

Musca domestica = assay: Test Example 4: filter paper with sucrose bait, Musca domestica; details: 24 h, read-out: pest death rate
Procedure: A formulation of any one of the present compounds (1), (4), (6), (7), (9), (10), (11), (12), (13), (15), (16), (17), (18), (19), (20), (21), (22), (24), (25) and (26) obtained in Formulation Example 5 was diluted with water to prepare a test solution having 500 ppm of the active ingredient.
(§1) A filter paper having a diameter of 5.5 cm was spread on the bottom of a polyethylene cup having a diameter of 5.5 cm and 0.7 ml of the test solution was added dropwise onto the filter paper. As a bait, 30 mg of sucrose was uniformly placed on the filter paper. Into the polyethylene cup, 10 female imagoes of Musca domestica were released and the cup was sealed with a lid. After 24 hours, the number of surviving or dead Musca domestica was counted and the death rate of the pest was calculated.

Blattalla germanica = assay: Test Example 5: filter paper with sucrose bait, Blattalla germanica; details: 144 h; 500 ppm active ingredient, 0.7 ml on filter paper; 2 male imagoes of Blattalla germanica; after 6 days; read-out: pest death rate
Procedure: A formulation of any one of the present compounds (4), (5), (6), (8), (12), (15), (16), (18), (22), (23) and (24) obtained in Formulation Example 5 was diluted with water to prepare a test solution having 500 ppm of the active ingredient.
as §1, with “2 male” for “10 female”, “Blattalla germanica” for “Musca domestica”, “6 days,” for “24 hours,”

Compound | pest or weed control at 3.5 ppm (Culex pipiens pallens) | pest or weed control at 500 ppm (Musca domestica) | pest or weed control at 500 ppm (Blattalla germanica)
N#CC(CCC(F)(F)C(F)(F)F)S(=O)(=O)CC1CCCCO1 (single isomer, unassigned) [present compound (22), 5,5,6,6,6-pentafluoro-2-(tetrahydropyran-2-ylmethanesulfonyl)hexanenitrile] | ≥ 95% | ≥ 90% | 100%
C#CCC1CCC(CSCCC(F)(F)F)O1 (single isomer, unassigned) [present compound (23), 2-(prop-2-ynyl)-5-(3,3,3-trifluoropropylthiomethyl)tetrahydrofuran] |  |  | 100%
C#CCC1CCC(CS(=O)(=O)CCC(F)(F)F)O1 (single isomer, unassigned) [present compound (24), 2-(prop-2-ynyl)-5-(3,3,3-trifluoropropanesulfonylmethyl)tetrahydrofuran] |  | ≥ 90% | 100%
CCOC(=O)N1CCC(C(C#N)S(=O)(=O)CCC(F)(F)F)CC1 (centres unmarked) [present compound (1), 2-[N-(ethoxycarbonyl)piperidin-4-yl]-2-(3,3,3-trifluoropropylsulfonyl)acetonitrile] |  | ≥ 90% | 
N#CC(C1CCSCC1)S(=O)(=O)CCC(F)(F)F (centres unmarked) [present compound (4), 2-(tetrahydrothiopyran-4-yl)-2-(3,3,3-trifluoropropylsulfonyl)acetonitrile] | ≥ 95% | ≥ 90% | 100%
N#CC(C1CC[S+]([O-])CC1)S(=O)(=O)CCC(F)(F)F (centres unmarked) [present compound (5), 2-(1-oxo-1λ^4-tetrahydrothiopyran-4-yl)-2-(3,3,3-trifluoropropylsulfonyl)acetonitrile] | ≥ 95% |  | 100%
N#CC(C1CCS(=O)(=O)CC1)S(=O)(=O)CCC(F)(F)F (centres unmarked) [present compound (6), 2-(1,1-dioxo-1λ^4-tetrahydrothiopyran-4-yl)-2-(3,3,3-trifluoropropylsulfonyl)acetonitrile] | ≥ 95% | ≥ 90% | 100%
N#CC(C1CCSC1)S(=O)(=O)CCC(F)(F)F (centres unmarked) [present compound (7), 2-(tetrahydrothiophen-3-yl)-2-(3,3,3-trifluoropropylsulfonyl)acetonitrile] | ≥ 95% | ≥ 90% | 
N#CC(C1CC[S+]([O-])C1)S(=O)(=O)CCC(F)(F)F (centres unmarked) [present compound (8), 2-(1-oxo-1λ^4-tetrahydrothiophen-3-yl)-2-(3,3,3-trifluoropropylsulfonyl)acetonitrile] | ≥ 95% |  | 100%
N#CC(CC1CCCO1)S(=O)(=O)CCC(F)(F)F (centres unmarked) [present compound (10), 3-(2-tetrahydrofuran-2-yl)-2-(3,3,3-trifluoropropylsulfonyl)propionitrile] |  | ≥ 90% | 
N#CC(CC1CCOC1)S(=O)(=O)CCC(F)(F)F (centres unmarked) [present compound (11), 3-(tetrahydrofuran-3-yl)-2-(3,3,3-trifluoropropylsulfonyl)propionitrile] | ≥ 95% | ≥ 90% | 
N#CC(CC1CCCCO1)S(=O)(=O)CCC(F)(F)F (centres unmarked) [present compound (12), 3-(2-tetrahydropyran-2-yl)-2-(3,3,3-trifluoropropylsulfonyl)propionitrile] | ≥ 95% | ≥ 90% | 100%
N#CC(CC1CCC(=O)O1)S(=O)(=O)CCC(F)(F)F (centres unmarked) [present compound (13), 3-(2-oxotetrahydrofuran-5-yl)-2-(3,3,3-trifluoropropylsulfonyl)propionitrile] |  | ≥ 90% | 
COC(=O)N1CCC(C(C#N)S(=O)(=O)CCC(F)(F)C(F)(F)F)CC1 (centres unmarked) [present compound (15), 2-[N-(methoxycarbonyl)piperidin-4-yl]-2-(3,3,4,4,4-pentafluorobutylsulfonyl)acetonitrile] | ≥ 95% | ≥ 90% | 100%
N#CC(C1CCSCC1)S(=O)(=O)CCC(F)(F)C(F)(F)F (centres unmarked) [present compound (16), 2-(tetrahydrothiopyran-4-yl)-2-(3,3,4,4,4-pentafluorobutylsulfonyl)acetonitrile] | ≥ 95% | ≥ 90% | 100%
N#CC(CCC(F)(F)F)S(=O)(=O)CC1CCCO1 (centres unmarked) [present compound (17), 5,5,5-trifluoro-2-(tetrahydrofuran-2-ylmethanesulfonyl)pentanenitrile] |  | ≥ 90% | 
N#CC(CCC(F)(F)C(F)(F)F)S(=O)(=O)CC1CCCO1 (centres unmarked) [present compound (18), 5,5,6,6,6-pentafluoro-2-(tetrahydrofuran-2-ylmethanesulfonyl)hexanenitrile] | ≥ 95% | ≥ 90% | 100%
N#CC(CCCC(F)(F)C(F)(F)F)S(=O)(=O)CC1CCCO1 (centres unmarked) [present compound (19), 6,6,7,7,7-pentafluoro-2-(tetrahydrofuran-2-ylmethanesulfonyl)heptanenitrile] | ≥ 95% | ≥ 90% | 
N#CC(CCC(F)(F)C(F)(F)F)S(=O)(=O)CCC1OCCO1 (centres unmarked) [present compound (21), 5,5,6,6,6,-pentafluoro-2-[2-(1,3-dioxolan-2-yl)ethanesulfonyl]pentanenitrile] | ≥ 95% | ≥ 90% | 
COC(=O)C(CCC(F)(F)C(F)(F)F)S(=O)(=O)CC1CCCO1 (centres unmarked) [present compound (25), methyl 5,5,6,6,6-pentafluoro-2-(tetrahydrofuran-2-ylmethanesulfonyl)hexanoate] |  | ≥ 90% | 
